Paper PMC5608556, “Photo-affinity labelling and biochemical analyses identify the target of trypanocidal simplified natural product analogues” (PLoS Neglected Tropical Diseases, 2017)
Like-named read-outs stand apart in the source and are kept apart here.

Assays:
[1] = system: ATP production (oxidative phosphorylation) in digitonin-permeabilised PF T. brucei; test: ATP production assay in digitonin-permeabilised cells; assay type: cell-based, Trypanosoma brucei; details: for Effect on ATP production from succinate: succinate 2.5 mM as substrate
Excerpt: We next sought to identify the point at which ATP production was blocked using digitonin-permeabilised cells. Digitonin permeabilises the plasma membrane of trypanosomatids, but crucially, leaves the glycosomes and mitochondria intact and fully functional, allowing them to be probed with compartment-specific ATP-yielding substrates. Digitonin-permeabilised PF T. brucei were probed with succinate, which is readily transported across the PF T. brucei mitochondrial membrane by the dicarboxylic acid carrier and can yield only oxidative phosphorylation-derived ATP through the FoF1-ATP synthase (complex V).
Fig 5 Inhibition of ATP production in digitonin-permeabilsed cells. (A-C) Digitonin-permeabilised PF T. brucei were probed with substrates in the presence of inhibitors and resulting ATP production quantified by bioluminescence assay. See experimental section for details. Inhibitors were used at saturating concentrations to ensure that relevant enzyme activities were ablated. Key: NS, no substrate; NI, no inhibitor; SHAM, salicylhydroxamic acid (TAO inhibitor at 100 μM); Rotenone (complex I inhibitor at 100 μM); Malonate (complex II inhibitor at 5 mM); AA, antimycin A (complex III inhibitor at 200 μM); OA, oligomycin A (complex V inhibitor at 200 μM); DNP, 2,4-dinitrophenol (protonophore at 1 mM); Comp.1, compound 1 at 200 μM. Background relative light units (RLU) were subtracted from measurements and % ATP production normalised to the no inhibitor control. Data were averaged from three independent experiments, each performed in quadruplicate. Error bars show standard deviations. T-tests were performed against no inhibitor controls (black asterisks) and compound 1 (grey open circles) and significance values presented: p < 0.00005 (*** / °°°), p < 0.0005 (** / °°), p < 0.005 (* / °). (A) Succinate was used as a substrate to generate ATP solely through oxidative phosphorylation (OxPhos). Oxidative phosphorylation inhibitors malonate, AA, OA and DNP virtually eliminated all ATP production. […] (B) α-ketoglutarate yields 40% ATP through substrate-level phosphorylation (SubPhos) and 60% through oxidative phosphorylation. Malonate, AA, OA and DNP inhibit oxidative phosphorylation, but not substrate-level phosphorylation. […] (C) Gly-3P acts as an alternative entry site to the electron transport chain yielding ATP through oxidative phosphorylation and the glycosome (GlyPhos). Malonate has no effect, as it acts at a different entry point. AA, OA and DNP inhibit oxidative phosphorylation, but not glycosomal phosphorylation.
ATP production assays were carried out in duplicate, and three independent assays were conducted. Cells were digitonin-permeabilised as previously described. Briefly, cells were washed in PBS and permeabilised for 5 min at a density of 1x10^8 cells/mL in SoTE buffer (20 mM Tris.HCl (pH 7.5), 2 mM EDTA pH 7.5, 600 mM sorbitol) supplemented with 0.015% (w/v) digitonin. Permeabilised cells were pelleted at 5000 g for 3 min at 4°C and suspended to 8.4x10^7 cells/mL in ATP assay buffer (20 mM Tris.HCl (pH 7.4), 15 mM KH2PO4, 0.6 M sorbitol, 10 mM MgSO4, 2.5 mg/mL fatty acid-free BSA.
ATP production assays were carried out in 75 μl volumes in 96-well plates with a final PF T. brucei cell density of 6.7 x 10^7 cells/mL as previously reported. […] B-THP-Ts, antimycin A (AA) and oligomycin A (OA) were used at 200 μM, Dinitrophenol (DNP) at 1 mM, malonate at 5 mM, rotenone at 100 μM and salicylhydroxamic acid (SHAM) at 100 μM. 59.25 μL digitonin-permeabilised cells (prepared above) were added to 0.75 μl inhibitor dissolved in DMSO (or 0.75 μL DMSO without inhibitor for no inhibitor control) and incubated for 10 min to allow inhibitors to take effect. Substrate was added to 2.5 mM and incubated for 10 min. Reactions were started with the addition of ADP to 60 μM and incubated at RT for 30 min. […]

[2] = system: mitochondrial membrane potential (Δψm) in live PF T. brucei; test: MitoTracker monitoring of mitochondrial membrane potential; assay type: cell-based, Trypanosoma brucei; details: 2 h; for Elevation of mitochondrial membrane potential (Δψm): compounds at 40 μM, MitoTracker Red/Green ratio relative to uninhibited control; for Effect on mitochondrial membrane potential (Δψm): AA and OA 2 μM, DNP 1 mM
Excerpt: To determine which mitochondrial complex of oxidative phosphorylation was targeted by B-THP-T compounds, their effects on the mitochondrial membrane potential (Δψm) were monitored in live PF T. brucei (Fig 6A). MitoTracker Red CMXRos, like tetramethylrhodamine and safranine, accumulates in active mitochondria and the degree of accumulation is dependent on the Δψm, however, accumulation of MitoTracker Green FM is independent of the Δψm and the ratio of red/green uptake can therefore be used to determine the Δψm normalised to the number and size of mitochondria present. […] Similarly, compounds 1 and 3 elevated the mitochondrial membrane potential (by 2-3-fold), confirming that they, like OA, reduce oxidative phosphorylation by the inhibition of the FoF1-ATP synthase.
Fig 6 Effects of compounds on mitochondrial membrane potential. PF T. brucei were incubated with inhibitors and MitoTracker Red CMXRos, which is an indicator of the mitochondrial membrane potential (Δψm). (A) MitoTracker-loaded cells were imaged to qualitatively detect differences in the Δψm. […] (B) Fluorescence of MitoTracker-loaded cells were quantified using a microplate reader and normalised to MitoTracker green fluorescence.
2 x 10^6 PF T. brucei cells were incubated in 1 mL GF-SDM-79 growth media supplemented with/without inhibitors for 2 h. B-THP-Ts were used at 40 μM, AA and OA at 2 μM, DNP at 1 mM and SHAM at 100 μM. MitoTracker Red CMXRos and MitoTracker Green FM were added to 100 nM and 1 μM respectively and incubated for a further 10 min. Cells were washed in growth medium and the MitoTracker reagents chased into the mitochondrion for 10 min in fresh growth medium supplemented with inhibitors. Cells were washed again in growth medium to remove unincorporated MitoTracker reagents, pelleted, suspended in 100 μL 4% PFA in PBS, and fixed at RT in the dark for 10 min. Fixed cells were pelleted and suspended in 100 μl PBS. Cells were transferred to poly-lysine-coated slides and mounted with DAPI-containing SlowFade mounting medium (Invitrogen). Fluorescence images were collected with a DeltaVision microscope (as detailed above) to show MitoTracker localisation and comparative intensity.
1 mL of cells at 1 x 10^7 cells/mL were labelled as above. However, instead of fixing cells they were resuspended in 200 μL growth medium and transferred to 96-well plates. Fluorescences were recorded (excitation at 540/35 nm, emission at 590/10 nm for MitoTracker Red CMXRos, and excitation at 485/20 nm, emission at 528/20 nm for MitoTracker Green FM) using a BioTek FLX800 spectrofluorimeter and Gen5 Reader Control 2.0 software, in much the same way as others have recorded previously. Background fluorescence values were subtracted from each and MitoTracker Red fluorescences normalised against their MitoTracker Green FM counterparts. Membrane potentials were then calculated relative to the uninhibited controls.

[3] = glycerol-3-phosphate as substrate, 30 min, compound 1, AA, OA 200 μM, DNP 1 mM
[4] = 30 min, compound 1, AA, OA 200 μM, DNP 1 mM, malonate 5 mM, rotenone, SHAM 100 μM

CCCCCC[C@H]1CCC[C@@H](Cn2cc([C@@H]3CCC[C@H](CCCCO)O3)nn2)O1 [Compound 1]
IC50 ([1]; Trypanosoma brucei, 0.5 h, read-out: IC50 against oxidative phosphorylation (ATP production), Gly-3P as substrate, digitonin-permeabilised PF T. brucei, Gly-3P, 30 min incubation): 39.2 ± 4.6 µM
IC50 ([1]; Trypanosoma brucei, 0.5 h, read-out: IC50 against oxidative phosphorylation (ATP production), succinate as substrate, digitonin-permeabilised PF T. brucei, succinate, 30 min incubation): 57.3 ± 14.5 µM
Inhibition of ATP production from Gly-3P [1, 3]: 82 ± 16%
IC50 ([1]; read-out: IC50 against oxidative phosphorylation (ATP production), Gly-3P as substrate, digitonin-permeabilised PF T. brucei, Gly-3P, 30 min incubation): 39 ± 5 µM
IC50 ([1]; read-out: IC50 against oxidative phosphorylation (ATP production), succinate as substrate, digitonin-permeabilised PF T. brucei, succinate, 30 min incubation): 57 ± 15 µM
Effect on ATP production from succinate [1, 4]: decreased ATP production from succinate to similar levels
Inhibition of ATP production from α-ketoglutarate ([1]; α-ketoglutarate as substrate, 30 min, compound 1, AA, OA 200 μM, DNP 1 mM, malonate 5 mM): 67 ± 13%
Elevation of mitochondrial membrane potential (Δψm) [2]: 2-3 fold

C#CCNC(=O)CCC[C@H]1CC2(C[C@@H](Cn3cc([C@@H]4CCC[C@H](CCCCOCc5ccccc5)O4)nn3)O1)N=N2 [Compound 3]
Elevation of mitochondrial membrane potential (Δψm) [2]: 2-3 fold

CCCCCC[C@H]1C(=O)O[C@H](C)[C@H](NC(=O)c2cccc(NC=O)c2O)C(=O)O[C@@H](C)[C@@H]1OC(=O)CC(C)C [antimycin A]
Inhibition of ATP production from Gly-3P [1, 3]: 75 ± 14%
Effect on ATP production from succinate [1, 4]: almost abolished ATP production
Effect on mitochondrial membrane potential (Δψm) [2]: decrease the Δψm

O=C(O)CC(=O)O [malonate]
Effect on ATP production from Gly-3P ([1]; glycerol-3-phosphate as substrate, 30 min, malonate 5 mM, rotenone, SHAM 100 μM): no effect
Effect on ATP production from succinate [1, 4]: completely eliminated all ATP production
Effect on mitochondrial membrane potential (Δψm) [2]: decrease the Δψm
